Our source for the Papp A→B and EC50 values is patent US9399645B2, “Inhibitors of HIV replication” (Boehringer Ingelheim International GmbH, priority 2011, dated 2016).

The nature of data set [1]: Caco-2 Permeability Assay. The settings on record: human; for Papp A→B at 10 μM: apparent permeability A to B, compound at 10 μM, apical buffer pH 6.0, basolateral buffer pH 7.4, read-out: Papp (cm/sec, *10^−6). It counts as in vitro ADME. The text has this: Caco-2 Permeability Assay Caco-2 cells are purchased from Cell Culture Services as frozen instant cells at a concentration of 1*10^7 cells/vial. DMEM+glutamax-I culture media is purchased from Gibco (10569). Fetal bovine serum (FBS) is purchased from HyClone (SH30396.03). Pennicilin/Streptomycin antibiotics are purchased from Gibco (15140). MEM non-essential amino acids are purchased from Gibco (11140). Hank's balanced salt solution (HBSS) is purchased from Gibco (14025). Bovine serum albumin (BSA) is purchased from Sigma-Aldrich (A7906). MES low moisture is purchased from Sigma-Aldrich (M3671). HEPES is purchased from Sigma-Aldrich (H3375). Dimethyl Sulfoxide (DMSO) is purchased from EMD (MX1457-6). Complete DMEM media is prepared by adding 1 L of FBS, 100 mL of pen/strep and 110 mL of MEM non essential amino acids to 10 L of DMEM+glutamax-I. […] Caco-2 cells are seeded on HTS transwell 24-well plates purchased from Corning (3397). These polycarbonate membrane plates have a diameter of […] and pore size of 0.4 μm. The Caco-2 cells vial is thawed in a 37° C. water bath until only a small ice pellet is left. The vial is then transferred to the laminar flow hood and its exterior is extensively washed with 70% ethanol. The total content of the vial (2 mL) is transferred into a 50 mL tube containing 38 mL of complete DMEM. […] The seeding is done by the Hamilton star robotic station which is controlled with the Venus program. Each well will receive 600 μL of complete DMEM on its basolateral side and 200 μL of cells on its apical side. Each well receives 50 000 cells. The 24-well plates are then returned to an automated Liconic STX110 incubator set at 37° C., 5% CO2 and 100% humidity. The culture media for the cells is changed every two days except on weekends. These cells are maintained for a period of two weeks prior to the running of the permeability assay. Permeability assays are usually performed between day 15 and 18 after the initial seeding. […] Controls for the assay are mannitol for tight junction determination and Digoxin for efflux transporter (p-glycoprotein) expression. On the day of the assay, each compound is diluted to 10 μM in the buffer (apical for A to B). 6 μl of the 5 mM DMSO stock is added to 3 mL of the buffer in a 24-well 10 mL deep plate covered with a lid. The plate containing all the diluted compounds is spun for 10 min at 3000 rpm in a Rotanta 46 RSC centrifuge from Hettich to remove unsoluble compound. This dilution is used to add at the start of the incubation. Each compound is tested in duplicate. On the day of the assay, the culture media of the 24-well plate is removed and replaced with warm HBSS. The HBSS is then also removed and the Apical and Basolatral buffer are added to their respective side of the transwells. These steps are performed by the Hamilton Star robotic station. The plate is then placed in a 37° C. incubator and is left to equilibrate for 30 min. After 30 min of incubation a background sample (25 μL from each well) is taken from the receiver side (Basolateral for A to B), and replenished with warm buffer. These samples and all others afterwards are kept in a 96-well 1 mL plate. To start the assay, the donor compartment (apical for A to B) is emptied and replaced with new buffer containing the compound at 10 μM. Once the compounds are added, the plate is returned to the 37° C. incubator and the timer is started. In order to determine how much compound is actually added to each well, a 50 μL sample is taken from each compound dilution, this sample is refered to as the load. These steps and the following are performed by the Tecan Freedom EVO robotic station controlled via the Gemini software. For A-to-B Assay: Samples (190 μL) are taken from each basolateral (receiver) chamber at time points 0, 60, 120 and 180 min or at time points 0, 30, 60 and 90 min. From the 190 μL taken, 50 μL is transferred to the receiving plate and 140 μL is discarded.

The test system of a further data set is HIV-1. As to the kind of experiment: C8166 HIV-1 Luciferase Assay (EC50). It counts as cell-based. The settings on record: Human immunodeficiency virus 1, C8166, 72 h. The protocol: C8166 HIV-1 Luciferase Assay (Ec50)
The assay used to measure inhibition of HIV replication is as described in WO 2004/050643, pages 73-75, incorporated herein by reference, with the following modifications:
Serial dilutions of HIV-1 inhibitors are prepared in complete media from DMSO stock solutions. Eleven serial dilutions of desired concentration are prepared in a 1 mL deep well titer plate (96 wells). The 12th well contains complete media with no inhibitor and serves as the positive control. All samples contain the same concentration of DMSO (<0.1% DMSO). Inhibitor is added, to triplicate wells, of a 96 well tissue culture treated clear view black microtiter plate (Corning Costar catalogue #3904). The total volume per well is 200 μL of media containing the cells and inhibitor. The last row is reserved for uninfected C8166 LTRIuc cells to serve as the background blank control and the first row is media alone.
Count C8166 LTRIuc cells and place in a minimal volume of complete RPMI 1640 in a tissue culture flask (ex. 30×10^6 cells in 10 mL media/25 cm^2 flask). Infect cells with HIV-1 at a moi of 0.005. Incubate cells for 1.5 h at 37° C. on a rotating rack in a 5% CO2 incubator. Resuspend cells in complete RPMI to give a final concentration of 25,000-cells/well. Add cells to wells of 96 well microtiter plate containing inhibitors. Add 25,000 uninfected C8166-LTRIuc cells/well in 200 μL complete RPMI to last row for background control. Incubate cells at 37° C. in 5% CO2 incubator for 3 days.
50 μL Steady Glo (luciferase substrate T112=5 hours Promega catalogue # E2520) is added to each well of the 96 well plate. The relative light units (RLU) of luciferase are determined using a luminescence plate reader. The calculated % inhibition values are used to determine EC50, slope factor (n) and maximum inhibition (Imax).

Turning to `CC[C@H]1C[C@@H](n2c(=O)nc(-c3cnn(C)c3)c3oc4cnc(-c5cnco5)cc4c32)CCO1` [Compound 1089], the Papp A→B at 10 μM in data set [1] came to 18.6 ×10⁻⁶ cm/s. In the data set on HIV-1, the EC50 (as a rule, the concentration that produces a half-maximal response) was 30 nM.

With `CC[C@H]1C[C@@H](n2c(=O)nc(-c3cnn(C)c3)c3oc4ccc(-c5cn(C)cn5)nc4c32)CCO1` [Compound 1014], the Papp A→B at 10 μM in data set [1] came out at 20.7 ×10⁻⁶ cm/s. In addition, the EC50 in the data set on HIV-1 is 5.2 nM.

In the case of `CC[C@H]1C[C@@H](n2c(=O)nc(-c3cnn(C)c3)c3oc4c(C#N)c(C)c(-c5cnn(C)c5)cc4c32)CCO1` [Compound 1060], in data set [1], the Papp A→B at 10 μM was 13 ×10⁻⁶ cm/s. This compound yielded an EC50 with HIV-1 of 140 nM.

As for `CC[C@H]1C[C@@H](n2c(=O)nc(-c3cnn(C)c3)c3oc4cnc(-c5cn(C)cn5)cc4c32)C[C@@H](C)O1` [Compound 1103], in data set [1], the Papp A→B at 10 μM amounted to 18.5 ×10⁻⁶ cm/s. The midpoint of the response in the data set on HIV-1, the EC50, lay at 56 nM.

For `CNc1ccc(-c2nc(=O)n(CCC3CCCO3)c3c2oc2c(F)cc(-c4cnn(C)c4)cc23)cn1` (stereo not drawn) [Compound 1030], the Papp A→B at 10 μM in data set [1] was found to be 6.1 ×10⁻⁶ cm/s. Moreover, in the data set with HIV-1, a half-maximal response (EC50) required 10.2 nM.

`CC[C@H]1C[C@@H](n2c(=O)nc(-c3cnn(C)c3)c3oc4cnc(-c5cnn(C)c5)cc4c32)CCO1` [Compound 1076]: in data set [1], the Papp A→B was determined as 17.9 ×10⁻⁶ cm/s. In the data set on HIV-1, it took 5.9 nM to reach a half-maximal effect (EC50).

With `CC[C@H]1C[C@@H](n2c(=O)nc(-c3cccnc3)c3oc4cc(C#N)c(-c5cnn(C)c5)nc4c32)CCO1` [Compound 1019], the Papp A→B at 10 μM in data set [1] worked out at 22.5 ×10⁻⁶ cm/s. This compound also showed an EC50 in the data set with HIV-1 of 52 nM.

Consider `CC[C@H]1C[C@@H](n2c(=O)nc(-c3cnn(C)c3)c3oc4ccc(-c5cnn(C)c5)nc4c32)CCO1` [Compound 1001], for which the Papp A→B at 10 μM in data set [1] turned out to be 20.4 ×10⁻⁶ cm/s. In the data set with HIV-1, this compound had an EC50 of 4.9 nM.

With `CN(C)c1ccc(-c2nc(=O)n(CCC3CCCO3)c3c2oc2cc(F)c(-c4cnn(C)c4)cc23)cn1` (stereo not drawn) [Compound 1034], the Papp A→B at 10 μM in data set [1] is 6.8 ×10⁻⁶ cm/s. In the data set on HIV-1, the midpoint of the response, the EC50, lay at 23 nM.

For the compound `CC[C@H]1C[C@@H](n2c(=O)nc(-c3cnn(C)c3)c3oc4ccc(-c5cnco5)nc4c32)CCO1` [Compound 1007], in data set [1], the Papp A→B at 10 μM came to 19.7 ×10⁻⁶ cm/s. For the same compound, the EC50 in the data set with HIV-1 worked out at 8.4 nM.

On to `CC[C@H]1C[C@@H](n2c(=O)nc(-c3cnn(C)c3)c3oc4c(F)cc(-c5cn(C)cn5)cc4c32)CCO1` [Compound 1097], for which the Papp A→B at 10 μM in data set [1] was found to be 37.1 ×10⁻⁶ cm/s. In the data set with HIV-1, this compound returned an EC50 of 3.9 nM.

On to `C[C@@H]1C[C@H](n2c(=O)nc(-c3cnn(C)c3)c3oc4cc(C#N)c(-c5cnn(C)c5)cc4c32)C[C@H](C)O1` [Compound 1052], for which the Papp A→B at 10 μM in data set [1] came to 18.2 ×10⁻⁶ cm/s. This compound also showed an EC50 with HIV-1 of 150 nM.

Turning to `CC[C@H]1C[C@@H](n2c(=O)nc(-c3cnn(C)c3)c3oc4c(C)cc(-c5cnn(C)c5)cc4c32)CCO1` [Compound 1058], the Papp A→B at 10 μM in data set [1] stood at 16.6 ×10⁻⁶ cm/s. This compound came in with an EC50 in the data set on HIV-1 of 0.6 nM.

As for `CC[C@H]1C[C@@H](n2c(=O)nc(-c3cnn(C)c3)c3oc4cc(C#N)c(-c5cnn(C)c5)cc4c32)C[C@@H](C)O1` [Compound 1053], the Papp A→B at 10 μM in data set [1] amounted to 22.2 ×10⁻⁶ cm/s. The same compound showed an EC50 in the data set with HIV-1 of 43 nM.

With `CC[C@H]1C[C@@H](n2c(=O)nc(-c3ccc(OC)cn3)c3oc4ccc(-c5cn(C)cn5)nc4c32)CCO1` [Compound 1101], the Papp A→B at 10 μM in data set [1] worked out at 32 ×10⁻⁶ cm/s. Moreover, in the data set on HIV-1, the EC50 was determined as 17 nM.

With `CC[C@H]1C[C@@H](n2c(=O)nc(-c3cnn(C)c3)c3oc4cc(C)c(-c5cnn(C)c5)cc4c32)CCO1` [Compound 1050], the Papp A→B at 10 μM in data set [1] amounted to 19.1 ×10⁻⁶ cm/s. For the same compound, the response in the data set on HIV-1 was half-maximal at 7.7 nM (EC50).

`CC[C@H]1C[C@@H](n2c(=O)nc(-c3cnn(C)c3)c3oc4ccc(-c5cn(C)cn5)cc4c32)CCO1` [Compound 1091]: the Papp A→B at 10 μM in data set [1] is 7.9 ×10⁻⁶ cm/s. In addition, in the data set with HIV-1, a half-maximal response (EC50) required 15.4 nM.

For `CC[C@H]1C[C@@H](n2c(=O)nc(-c3cnn(C)c3)c3oc4cc(C#N)c(-c5cn(C)cn5)cc4c32)CCO1` [Compound 1094], the Papp A→B at 10 μM in data set [1] came to 8.3 ×10⁻⁶ cm/s. For the same compound, in the data set with HIV-1, the EC50 is 9.1 nM.
